Reference: article PMC12226405 (Aging Medicine, 2025)

Key:
lumbar spine (L2–L4) BMD = system: lumbar spine (L2–L4) BMD; set-up: method as in PMID 31243480; conditions: study of biosimilar approved in Japan; cited from earlier work
femoral neck BMD = system: femoral neck BMD; set-up: method as in PMID 11346808; conditions: Fracture Prevention Trial; after 2 years of 20 μg daily; cited from earlier work
[1] = set-up: method as in PMID 31243480; conditions: Fracture Prevention Trial; 20 μg; cited from earlier work
lumbar spine BMD = system: lumbar spine BMD; set-up: method as in PMID 11346808; conditions: Fracture Prevention Trial; after 2 years of 20 μg daily; cited from earlier work
[2] = system: lumbar spine BMD in postmenopausal women with osteoporosis; assay: Percent change in lumbar spine BMD by DXA, phase III study; assay type: in vivo, human; conditions: for Percent change in lumbar spine BMD from baseline at Week 24, LSM ± SE / Percent change in lumbar spine BMD from baseline at Week 48, LSM ± SE: mITT population, LOCF, 20 μg s.c. once daily, DXA
Experimental: (§1) A multicenter, randomized, active‐controlled, double‐blind, parallel‐group phase III study was conducted between August 2018 and August 2020 at 17 sites in India. The study was conducted as per the principles and requirements of the Declaration of Helsinki (2013), and ICH‐GCP (E6‐R2, Step 4) guidelines along with the local regulatory requirements of Good Clinical Practices for Clinical Research in India (2004), ICMR guidelines for Biomedical Research on Human Subjects (2017) and New Drugs and Clinical Trial Rules, 2019 (CDSCO) and after approvals from respective Institutional Ethics Committees. The study was registered on the Clinical Trial Registry of India (CTRI/2018/05/014254).
(§2) After signing of the informed consent form, the subjects were screened to assess eligibility according to the study selection criteria. Postmenopausal women between the ages of 50–80 years with BMD T‐SCORE less than −2.5 at the lumbar spine or femoral neck were enrolled in the study.
(§3) All participants were provided with daily oral supplementation of 1000 mg of calcium and 500 IU of vitamin D3.
(§4) Medications known to affect bone metabolism, such as bisphosphonates, raloxifene, and denosumab, as well as drugs associated with reduced bone density, including glucocorticoids, aromatase inhibitors, and tamoxifen, were prohibited during the study. Throughout the treatment period, data were collected for primary and secondary endpoints. BMD was evaluated using dual‐energy X‐ray absorptiometry (DXA) as part of the efficacy assessments. Laboratory samples were collected during the treatment phase to support efficacy and safety evaluations, and all laboratory analyses were conducted at a central laboratory.
(§5) The primary endpoint of the study was the percent change in BMD of the lumbar spine and proximal femur, assessed using dual‐energy X‐ray absorptiometry (DXA) from baseline to Weeks 24 and 48. All DXA measurements were analyzed centrally, and the results were not disclosed to individual study centers to ensure unbiased interpretation. Secondary endpoints included the change from baseline in the pharmacodynamic parameter serum P1NP (procollagen type 1 N terminal propeptide), which was assessed at randomization and Weeks 12, 24, and 48. […] Serum biochemistry analyses were performed at baseline and at Weeks 4, 12, 24, and 48.
(§6) The efficacy analysis was performed on all the subjects in mITT (modified intention‐to‐treat) and PP (per protocol) population. Any missing postbaseline data were imputed using the last observation carried forward (LOCF) procedure. For the analysis of change from baseline to Week 12 (for P1NP), Week 24, and Week 48, a regression model with percent change from baseline as the response variable and the stratification variable was used for randomization, and treatment as independent variables was fit to test the mean difference between the two treatments in percent change. Adjusted least square mean (LSM) and the standard error values along with the p value and the 95% confidence interval (CI) of the difference were presented.

[3] = system: serum P1NP (procollagen type 1 N terminal propeptide); assay: Change from baseline in serum P1NP (bone turnover marker); assay type: in vivo, human; conditions: mITT population; 20 μg s.c. once daily
Experimental: as §3, §5, §6

[4] = Pharmacokinetic sub-study, plasma teriparatide on Day 1; assay type: in vivo, human; conditions: Day 1, 20 μg s.c., sampling to 240 min, noncompartmental, n = 15 per arm
Experimental: Pharmacokinetic (PK) assessments were performed on a subset of subjects who voluntarily consented to participate in an additional PK sub‐study alongside the main study. […] Blood samples for PK analysis were collected at the study site on Day 1 (Visit 2, i.e., the randomization visit) at specified time points: pre‐dose (within 30 min before the first investigational product [IP] administration) and at 5‐, 10‐, 20‐, 30‐, 45‐, 60‐, 90‐, 120‐, 180‐, and 240‐min post‐IP administration.
PK parameters (C max, AUC0–t , and T max) measured in plasma were calculated by noncompartmental methods, using Phoenix software for the PK population on Day 1. Descriptive statistics (number of subjects [n], mean, standard deviation, median, minimum, and maximum [range]) were calculated for all evaluable PK parameters by treatment group for the PK population.

[5] = system: femoral neck BMD in postmenopausal women with osteoporosis; assay: Percent change in femoral neck BMD by DXA, phase III study; assay type: in vivo, human; conditions: for percent change in femoral neck BMD from baseline to 48 weeks (LSM ± SE): as given in the abstract, population not given; for percent change in femoral neck BMD from baseline to 48 weeks (LSM ± SE) / Percent change in femoral neck BMD from baseline at Week 24, LSM ± SE / Percent change in femoral neck BMD from baseline at Week 48, LSM ± SE: 20 μg s.c. once daily; for Percent change in femoral neck BMD from baseline at Week 24, LSM ± SE / Percent change in femoral neck BMD from baseline at Week 48, LSM ± SE: mITT population, LOCF, DXA
Experimental: as §1, §2, §3, §4, §5, §6

[6] = biosimilar versus reference teriparatide, mITT
[7] = versus reference teriparatide, Week 24 and Week 48, mITT
[8] = listed as Proposed biosimilar teriparatide (T)
[9] = listed as Reference teriparatide (R)

Row | Substance | percent change from baseline to 52 weeks in lumbar spine (L2–L4) BMD (mean ± SE) (lumbar spine (L2–L4) BMD) | Percent change in lumbar spine BMD from baseline at Week 24, LSM ± SE [2] | Percent change in lumbar spine BMD from baseline at Week 48, LSM ± SE [2] | Serum P1NP concentration, change from baseline to Week 12 (LSM ± SE) [3] | Serum P1NP concentration, change from baseline to Week 24 (LSM ± SE) [3] | Serum P1NP concentration, change from baseline to Week 48 (LSM ± SE) [3] | percent change in femoral neck BMD from baseline to 48 weeks (LSM ± SE) [5] | Percent change in femoral neck BMD from baseline at Week 24, LSM ± SE [5] | Percent change in femoral neck BMD from baseline at Week 48, LSM ± SE [5] | further results
1 | RGB‐10: proposed biosimilar teriparatide approved in Japan | 8.94% ± 6.19% |  |  |  |  |  |  |  |  | 
2 | teriparatide |  |  |  |  |  |  |  |  |  | percentage increase in BMD at the femoral neck (mean ± SE) (femoral neck BMD): 2.8 ± 5.7%; TEAE dizziness [1]: 9%; TEAE leg cramps [1]: 3%; percentage increase in BMD at the lumbar spine (mean ± SE) (lumbar spine BMD): 9.7 ± 7.4%
3 | teriparatide [Biosimilar teriparatide] |  | 7.16 ± 0.82% | 8.46 ± 0.94% | 24.38 ± 4.44 | 33.05 ± 7.00 | 48.52 ± 7.24 | 3.94% ± 0.83 | 3.37 ± 0.78% | 4.03 ± 0.96 (p = 0.003) % | estimated between-group difference (95% CI), lumbar spine BMD percent change to 48 weeks ([2]; abstract, biosimilar versus reference, noninferiority margin −2.43%): −0.56%; LSM difference (95% CI), lumbar spine BMD percent change at Week 24 [2, 6]: −0.410 (−3.191, 2.372); LSM difference (95% CI), lumbar spine BMD percent change at Week 48 [2, 6]: −0.754 (−4.011, 2.502); noninferiority in lumbar spine BMD percentage change [2, 7]: noninferiority; AUC(0–t), geometric least squares mean [4, 8]: 6132.45 min; C max, geometric least squares mean [4, 8]: 0.10879 ng/mL; estimated between-group difference (95% CI), femoral neck BMD percent change to 48 weeks ([5]; abstract, biosimilar versus reference, noninferiority margin −1.44%): 1.44%; LSM difference (95% CI), femoral neck BMD percent change at Week 24 [5, 6]: 1.576 (−1.048, 4.199); LSM difference (95% CI), femoral neck BMD percent change at Week 48 [5, 6]: 0.173 (−3.146, 3.493); noninferiority in femoral neck BMD percentage change [5, 7]: noninferiority
4 | teriparatide [Reference teriparatide, reference compound] | 9.65% ± 6.22% | 7.57 ± 1.13% | 9.22 ± 1.34% | 21.95 ± 6.02 | 51.07 ± 9.63 | 34.30 ± 9.98 | 2.50% ± 1.20 | 1.79 ± 1.07% | 3.86 ± 1.24 (p = 0.024) % | AUC(0–t), geometric least squares mean [4, 9]: 6387.59 min; C max, geometric least squares mean [4, 9]: 0.10589 ng/mL
